From patent publication US20230220035A1 (DONG-A ST CO., LTD., published 2023)

Tests used:
[1] = target: GLP-1 receptor (Homo sapiens, UniProt P43220); assay: Human GLP-1 receptor activation assay (CRE-luciferase); format: cell-based; parameters: host or cells: CHO-K1; conditions: for Emax: CHO-K1, 6 h, read-out: GLP-1 receptor Maximum activation (% vs GLP-1); for EC50: CHO-K1 cells transiently transfected, luciferase, 6 hours, 0.1% BSA
Method: (§1) Then, the resulting increased luciferase activity was evaluated as a measurement of the effect on each receptor activation.
(§2) For positive control, endogenous ligand GLP-1 or glucagon was used for respective evaluation. The above-mentioned acylated oxyntomodulin peptide analogs of Comparative Example 8-12 were synthesized and used as comparative examples.
(§3) After 3 hours of transfection, medium was exchanged to Alpha Minimal Essential Medium (α-MEM) comprising 10% fetal bovine serum (FBS). Next day, the medium was exchanged to α-MEM comprising the acylated oxyntomodulin peptide analog of the present invention and 0.1% bovine serum albumin (BSA). After 6 hours, dual luciferase assay reagent (Promega) was added in the same amount as the medium in which the cells were submerged, and firefly luciferase and Renilla luciferase activities were successively measured. Firefly luciferase activity values were corrected against Renilla luciferase activity to yield transfection efficiency.

[2] = in vivo; conditions: cynomolgus monkey, sc
Text: Cynomolgus monkeys were used to evaluate the pharmacokinetics in monkeys of the acylated oxyntomodulin peptide analogs according to the present invention.

[3] = target: glucagon receptor (Homo sapiens, UniProt P47871); assay: Human glucagon receptor activation assay (CRE-luciferase); format: cell-based; parameters: host or cells: CHO-K1; conditions: CHO-K1 cells transiently transfected; for Emax: 6 h, relative to glucagon, read-out: GCG receptor Maximum activation (% vs GCG); for EC50: 6 hours, 0.1% BSA, read-out: GCG receptor EC50
glucagon receptor, sequence (P47871 26-477): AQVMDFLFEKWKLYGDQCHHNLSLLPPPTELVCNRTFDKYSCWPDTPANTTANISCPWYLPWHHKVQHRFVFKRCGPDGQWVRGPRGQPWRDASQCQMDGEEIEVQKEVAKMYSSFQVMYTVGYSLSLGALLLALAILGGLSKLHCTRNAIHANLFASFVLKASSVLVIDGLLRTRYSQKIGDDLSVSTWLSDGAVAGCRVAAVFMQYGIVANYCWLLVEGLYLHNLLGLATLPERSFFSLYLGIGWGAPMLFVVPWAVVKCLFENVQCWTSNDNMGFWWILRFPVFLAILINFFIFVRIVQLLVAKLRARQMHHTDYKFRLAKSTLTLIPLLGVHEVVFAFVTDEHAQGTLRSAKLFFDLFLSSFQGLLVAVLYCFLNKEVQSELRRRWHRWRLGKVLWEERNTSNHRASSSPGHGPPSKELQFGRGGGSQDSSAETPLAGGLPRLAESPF
Method: as §1, §2, §3

GLP-1 receptor, sequence (P43220 24-463): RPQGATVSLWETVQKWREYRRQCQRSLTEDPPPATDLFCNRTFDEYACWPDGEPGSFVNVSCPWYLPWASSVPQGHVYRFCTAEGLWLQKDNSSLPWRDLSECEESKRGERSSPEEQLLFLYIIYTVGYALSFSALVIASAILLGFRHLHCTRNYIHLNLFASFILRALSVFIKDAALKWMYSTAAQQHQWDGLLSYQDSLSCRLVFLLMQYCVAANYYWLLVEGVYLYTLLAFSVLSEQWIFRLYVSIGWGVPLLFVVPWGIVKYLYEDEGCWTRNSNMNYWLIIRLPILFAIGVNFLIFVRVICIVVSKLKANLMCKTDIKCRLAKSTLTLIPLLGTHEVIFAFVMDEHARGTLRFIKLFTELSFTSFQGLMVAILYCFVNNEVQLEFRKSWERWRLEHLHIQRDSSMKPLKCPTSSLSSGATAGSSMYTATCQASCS

Emax [1]	EC50 [1]	half-life ([2]; Monkey PK (S.C. half-life))	half-life ([2]; monkey PK half-life)	Emax [3]	EC50 [3]	SMILES
87.9%	0.1 to 1 nM	18 to 24 h	12 to 24 h	95.4%	≥ 1 nM	CCCCCCCCCCCCCCCCCC(=O)N[C@@H](CCC(=O)NCCOCCOCC(=O)NCCOCCOCC(=O)NCCCC[C@H](NC(=O)[C@H](CC(=O)O)NC(=O)[C@H](CO)NC(=O)[C@@H](NC(=O)[C@H](Cc1ccccc1)NC(=O)[C@@H](NC(=O)CNC(=O)[C@H](CCC(N)=O)NC(=O)C(C)(C)NC(=O)[C@@H](N)Cc1c[nH]cn1)[C@@H](C)O)[C@@H](C)O)C(=O)N[C@@H](CO)C(=O)N[C@@H](CCCCN)C(=O)N[C@@H](Cc1ccc(O)cc1)C(=O)N[C@@H](CC(C)C)C(=O)N[C@@H](CC(=O)O)C(=O)NC(C)(C)C(=O)N[C@@H](CCCNC(=N)N)C(=O)N[C@@H](CCCNC(=N)N)C(=O)N[C@@H](C)C(=O)N[C@@H](CCC(N)=O)C(=O)N[C@@H](CC(=O)O)C(=O)N[C@@H](Cc1ccccc1)C(=O)N[C@H](C(=O)N[C@@H](CCC(N)=O)C(=O)N[C@@H](Cc1c[nH]c2ccccc12)C(=O)N[C@@H](CC(C)C)C(=O)N[C@@H](CCSC)C(=O)N[C@@H](CC(N)=O)C(=O)N[C@H](C(=O)N[C@@H](CCCCN)C(=O)N[C@@H](CCC(=O)O)C(=O)N[C@@H](Cc1ccc(O)cc1)C(=O)N[C@@H](CCC(=O)O)C(=O)N[C@@H](CCCCNC(=O)[C@@H](N)CCCCNC(=O)CCCCCCCCCCCCCCCCC(=O)O)C(=O)N[C@@H](CCC(=O)O)C(=O)N[C@@H](Cc1ccc(O)cc1)C(=O)N[C@@H](CCC(=O)O)C(=O)O)[C@@H](C)O)C(C)C)C(=O)O [Compound 4]
93.6%	0.1 to 1 nM	18 to 24 h	12 to 24 h	99.4%	0.1 to 1 nM	CCCCCCCCCCCCCCCCCC(=O)N[C@@H](CCC(=O)NCCOCCOCC(=O)NCCOCCOCC(=O)NCCCC[C@H](NC(=O)[C@H](CC(=O)O)NC(=O)[C@H](CO)NC(=O)[C@@H](NC(=O)[C@H](Cc1ccccc1)NC(=O)[C@@H](NC(=O)CNC(=O)[C@H](CCC(N)=O)NC(=O)C(C)(C)NC(=O)[C@@H](N)Cc1c[nH]cn1)[C@@H](C)O)[C@@H](C)O)C(=O)N[C@@H](CO)C(=O)N[C@@H](CCCCN)C(=O)N[C@@H](Cc1ccc(O)cc1)C(=O)N[C@@H](CC(C)C)C(=O)N[C@@H](CC(=O)O)C(=O)NC(C)(C)C(=O)N[C@@H](CCCNC(=N)N)C(=O)N[C@@H](CCCNC(=N)N)C(=O)N[C@@H](C)C(=O)N[C@@H](CCC(N)=O)C(=O)N[C@@H](CC(=O)O)C(=O)N[C@@H](Cc1ccccc1)C(=O)N[C@H](C(=O)N[C@@H](CCC(N)=O)C(=O)N[C@@H](Cc1c[nH]c2ccccc12)C(=O)N[C@@H](CC(C)C)C(=O)N[C@@H](CCSC)C(=O)N[C@@H](CC(N)=O)C(=O)N[C@H](C(=O)N[C@@H](CCCCN)C(=O)N[C@@H](CCC(=O)O)C(=O)N[C@@H](Cc1ccc(O)cc1)C(=O)N[C@@H](CCC(=O)O)C(=O)N[C@@H](CCCCNC(=O)COCCOCCNC(=O)COCCOCCNC(=O)COCCOCCNC(=O)CC[C@H](NC(=O)CCCCCCCCCCCCCCCCC(=O)O)C(=O)O)C(=O)N[C@@H](CCC(=O)O)C(=O)N[C@@H](Cc1ccc(O)cc1)C(=O)N[C@@H](CCC(=O)O)C(=O)O)[C@@H](C)O)C(C)C)C(=O)O [Compound 5]
83.8%	0.1 to 1 nM	12 to 18 h	12 to 24 h	89.1%	0.1 to 1 nM	CCCCCCCCCCCCCCCCCC(=O)N[C@@H](CCC(=O)NCCOCCOCC(=O)NCCOCCOCC(=O)NCCCC[C@H](NC(=O)[C@H](CC(=O)O)NC(=O)[C@H](CO)NC(=O)[C@@H](NC(=O)[C@H](Cc1ccccc1)NC(=O)[C@@H](NC(=O)CNC(=O)[C@H](CCC(N)=O)NC(=O)C(C)(C)NC(=O)[C@@H](N)Cc1c[nH]cn1)[C@@H](C)O)[C@@H](C)O)C(=O)N[C@@H](CO)C(=O)N[C@@H](CCCCN)C(=O)N[C@@H](Cc1ccc(O)cc1)C(=O)N[C@@H](CC(C)C)C(=O)N[C@@H](CC(=O)O)C(=O)NC(C)(C)C(=O)N[C@@H](CCCNC(=N)N)C(=O)N[C@@H](CCCNC(=N)N)C(=O)N[C@@H](C)C(=O)N[C@@H](CCC(N)=O)C(=O)N[C@@H](CC(=O)O)C(=O)N[C@@H](Cc1ccccc1)C(=O)N[C@H](C(=O)N[C@@H](CCC(N)=O)C(=O)N[C@@H](Cc1c[nH]c2ccccc12)C(=O)N[C@@H](CC(C)C)C(=O)N[C@@H](CCSC)C(=O)N[C@@H](CC(N)=O)C(=O)N[C@H](C(=O)N[C@@H](CCCCN)C(=O)N[C@@H](CCC(=O)O)C(=O)N[C@@H](Cc1ccc(O)cc1)C(=O)N[C@@H](CCC(=O)O)C(=O)N[C@@H](CCCCNC(=O)[C@@H](N)CCCCNC(=O)COCCOCCNC(=O)COCCOCCNC(=O)COCCOCCNC(=O)CC[C@H](NC(=O)CCCCCCCCCCCCCCCCC(=O)O)C(=O)O)C(=O)N[C@@H](CCC(=O)O)C(=O)N[C@@H](Cc1ccc(O)cc1)C(=O)N[C@@H](CCC(=O)O)C(=O)O)[C@@H](C)O)C(C)C)C(=O)O [Compound 6]
70.4%	0.1 to 1 nM	6 to 12 h	< 12 h	73.3%	0.1 to 1 nM	CCCCCCCCCCCCCCCCCC(=O)N[C@@H](CCC(=O)NCCOCCOCC(=O)NCCOCCOCC(=O)NCCCC[C@H](NC(=O)[C@H](CC(=O)O)NC(=O)[C@H](CO)NC(=O)[C@@H](NC(=O)[C@H](Cc1ccccc1)NC(=O)[C@@H](NC(=O)CNC(=O)[C@H](CCC(N)=O)NC(=O)C(C)(C)NC(=O)[C@@H](N)Cc1c[nH]cn1)[C@@H](C)O)[C@@H](C)O)C(=O)N[C@@H](CO)C(=O)N[C@@H](CCCCN)C(=O)N[C@@H](Cc1ccc(O)cc1)C(=O)N[C@@H](CC(C)C)C(=O)N[C@@H](CC(=O)O)C(=O)NC(C)(C)C(=O)N[C@@H](CCCNC(=N)N)C(=O)N[C@@H](CCCNC(=N)N)C(=O)N[C@@H](C)C(=O)N[C@@H](CCC(N)=O)C(=O)N[C@@H](CC(=O)O)C(=O)N[C@@H](Cc1ccccc1)C(=O)N[C@H](C(=O)N[C@@H](CCC(N)=O)C(=O)N[C@@H](Cc1c[nH]c2ccccc12)C(=O)N[C@@H](CC(C)C)C(=O)N[C@@H](CCSC)C(=O)N[C@@H](CC(N)=O)C(=O)N[C@H](C(=O)N[C@@H](CCCCN)C(=O)N[C@@H](CCC(=O)O)C(=O)N[C@@H](Cc1ccc(O)cc1)C(=O)N[C@@H](CCC(=O)O)C(=O)N[C@@H](CCCCNC(=O)CCCCCCCCCCCCCCC)C(=O)N[C@@H](CCC(=O)O)C(=O)N[C@@H](Cc1ccc(O)cc1)C(=O)N[C@@H](CCC(=O)O)C(=O)O)[C@@H](C)O)C(C)C)C(=O)O [Compound 9]
